The source of these data is paper PMC11979685, “Synthesis of Derivatives of the Antibiotic Albicidin: The N‐Terminal Fragment as Key to Control Potency and Resistance Mediated by the Binding Protein AlbA” (Chemistry (Weinheim an Der Bergstrasse, Germany), 2025).

Structures are written as SMILES. Converted amounts (≈) assume the structure as drawn. Bounds are passed on as bounds.

One series has as its target bacterial DNA gyrase. Also on record: method as in PMID 17074789. As to conditions: read-out: half maximum inhibitory concentration (IC50), DNA gyrase; cited from earlier work.
The test system of a further series is Bacillus subtilis DSM 10. In words: MIC determination (broth microdilution). The note with it: DSM10, read-out: MIC B. sub. The class given is cell-based. As for the experimental part: (§1) After completing the syntheses, the antibacterial activity of A‐variations 4–24 was assessed by determination of MIC values against a basic set of gram‐negative and gram‐positive bacteria (Table 1). The monocyclic derivatives 4–8 featuring a cyano‐, trifluoromethyl‐, methoxy‐ and fluoro‐ substituent in para‐position were very active against the gram–negative E. coli and S. typhimurium strains with MIC values in the same range as 3rd Gen albicidin 3 or ciprofloxacin which is the gold standard for gyrase inhibitors. […] These findings are in agreement with previous studies showing good activities for cyano, trifluoromethyl, methoxy and fluoro substituents in the para‐position of different aromatic rings in the building block A.[12, 13] The activity of the monocyclic derivatives 4–8 against the gram‐positive strains B. subtilis and M. luteus were similar but slightly less pronounced compared to the lead structure 3.
(§2) 1.1 Determination of Minimal Inhibitory Concentrations (MIC)
(§3) Minimal inhibitory concentration (MIC) against selected bacterial strains values were determined according to the ninth edition of the Approved Standard M07-A9.[1] 20 μL of cryo stocks of bacterial strains were suspended in 20 mL LB medium (Lysogeny broth: 10 g/L peptone, 5 g/L yeast extract, 5 g/L NaCl). Following incubation overnight at 37°C, 200 rpm, the test inoculum was adjusted by 0.5 McFarland Standard in cation adjusted Mueller-Hinton broth (BBLTM Mueller-Hinton Broth II, Becton, Dickinson and Company, New Jersey, USA) to approximately 1x10^6 CFU mL-1. 95 μL of the bacterial inoculum were applied per well of a 96-well plate. Albicidin and albicidin derivatives 3−24 were dissolved in DMSO (100%) to an initial concentration of 2560 μg/mL and serially diluted in DMSO (100%). Initial solution and serial dilutions of Ciprofloxacin were prepared in 0.1 N HCL, respectively. 5 μL of each antibiotic dilution were added to the microdilution tray to reach albicidin concentrations of 128 μg/mL to 0.016 μg/mL per well. One row of each well plate served as a growth control without antibiotic substances and another row of the microdilution tray served as sterility control (only MHB II - media). The antimicrobial effect of the solvent (DMSO) was tested by adding 5 μL DMSO to several wells. Purity check and cell titer control were performed according to International S tandard M07-A9 on Mueller-Hinton II Agar (Mueller Hinton II Broth, 15 g/L agar-agar). Both microdilution trays and agar plates were incubated at 30−37°C for 16 h and subsequently analyzed for growth inhibition by naked eye. The following primary panel of microorganisms were purchased from German Collection of Microorganisms and Cell Cultures (DSMZ):
(§4) Escherichia coli DSM 1116
(§5) Micrococcus luteus DSM 1790
(§6) Mycobacterium phlei DSM 750
(§7) Salmonella typhimurium TA100 was kindly provided by Prof. Dr. Vera Meyer (Technische Universität Berlin). […]
(§8) was purchased as part of the single gene knockout library of E. coli K12 BW25113 (Keio collection) from Horizon Discovery group plc (Cambridge, UK).

In another series the test system is E. coli BW25113. Kind of series: MIC determination (broth microdilution). In kind it is cell-based. The note with it: Escherichia coli, BW25113; read-out: MIC E. coli BW25113. As to the method: as §1, §2, §3, §4, §5, §6, §7, §8
(Broth dilution looks for growth in wells or tubes with falling amounts of substance.)

For a further series, the system named is E. coli DSM1116. In words: MIC determination (broth microdilution). The note with it: Escherichia coli, DSM1116; read-out: MIC E. coli DSM1116. The class given is cell-based. As to the method:
as §1, §2, §3, §4, §5, §6, §7, §8

For series [1], the system named is Micrococcus luteus DSM 1790. Kind of series: MIC determination (broth microdilution). In kind it is cell-based. The note with it: DSM1790, read-out: MIC M. luteus. As to the method:
as §1, §2, §3, §4, §5, §6, §7, §8

The subject of series [2] is Mycobacterium phlei DSM 750. Kind of series: MIC determination (broth microdilution). The class given is cell-based. As to conditions: Mycolicibacterium phlei, DSM750; read-out: MIC M. phlei. As to the method:
as §1, §2, §3, §4, §5, §6, §7, §8

Series [3] deals with Salmonella typhimurium TA100. In words: MIC determination (broth microdilution). In kind it is cell-based. As to conditions: Salmonella enterica, read-out: MIC S. typh. As to the method: as §1, §2, §3, §4, §5, §6, §7, §8
The subject of the next series is E. coli. Kind of series: MIC against E. coli in presence of 50 % human serum. The class given is cell-based. The note with it: Escherichia coli; E. coli in presence of 50 % human serum; read-out: MICEc 50%HS.
In another series the target is E. coli DNA gyrase (Escherichia coli, UniProt P0AES4). In words: E. coli gyrase DNA cleavage assay. In kind it is biochemical. On the set-up: key to Gyrase inhibition strong+ / weak −: + strong inhibition; − weak inhibition in comparison to compound 16. As to conditions: for Gyrase inhibition strong+ / weak −: qualitative DNA cleavage assay at 1 μM and 10 μM, in comparison to compound 16. As to the method:
The target activity of the synthesized derivatives was investigated using a DNA cleavage assay with purified and enzymatically active E. coli DNA gyrase[8] (see SI). In this assay, albicidin‐stabilized complexes of gyrase and plasmid DNA are trapped, and subsequently denatured and deproteinated to reveal DNA linearized by gyrase. […] For the best performing compounds, which were able to fully stabilize the cleavage complex at a concentration of 1 μM, the concentrations at half‐maximum cleavage (CC50) were determined (Figure 3).
1.2 Escherichia coli Gyrase Cleavage Inhibition Assay
E. coli gyrase cleavage assays were executed by setting up a master mix including 0.25 µg relaxed plasmid (pBR322) in 35 mM Tris-HCl (pH 7.5), 24 mM KCl, 4 mM MgCl2, 2 mM dithithreitol (DTT), 1.8 mM spermidine, 1 mM ATP, 6.5% (wt/vol) glycerol and 0.1 mg/ml bovine serum albumin per reaction.
Of this stock solution, 13.2 µL was aliquoted for each reaction into 1.5 mL Eppendorf tubes and supplemented with 0.3 µL of the appropriate compound dilution or DMSO with a […] DMSO concentration of 2% per reaction. The reactions were started with 1.5 µL of 50 nM (pre-screening) or 40 nM (IC50 determinations) wt E. coli gyrase in dilution buffer (50 mM Tris-HCl (pH 7.5), 100 mM KCl, 2 mM DTT, 1 mM EDTA, and 50% (wt/vol) glycerol) for a […] volume of 15 µL. Reactions were incubated at 37°C for 30 minutes before addition of 1.5 µL 0.2% (wt/vol) SDS and 0.75 µL proteinase K (0.2 mg/mL) and further incubation at 37°C for 30 minutes to trap cleavage complexes. Reactions were stopped with 15 µL chloroform:isoamyl alcohol (24: 1 v/v) and 15 µL of STEB (40% (wt/vol) sucrose, […] Tris-Cl pH 8, 10 mM EDTA, 0.5 mg/mL bromophenol blue). After brief vortexing and centrifugation at 2,300g for 5 min, 15 µL of the aqueous phase was loaded onto 1% (wt/vol) agarose in TAE (Tris-acetate […] and EDTA […]) gels supplemented with 10 µg/mL ethidium bromide.
The gels were run at 85 V for 2 hours.
DNA was visualized (602/50, UV Trans, auto optimal exposure) with a ChemiDoc MP (Bio-Rad Laboratories Inc., equipped with ImageLab Touch Software v2.0.0.27) and the percentage of cleaved DNA relative to the total amount of DNA per lane was determined with ImageJ software.[2] IC50 curves were generated in GraphPad Prism (v10.0.0) using the non-linear regression curve fit variable slope with four parameters and least squares regression.

A short description of series [4]: Reverse-phase HPLC retention time as estimate of lipophilicity. In kind it is physicochemical. The note with it: indicator of lipophilicity. The source says:
As mentioned before, albicidin 1 is a rather hydrophobic compound and improving its aqueous solubility is desirable. The lipophilicity of drug molecules is commonly characterized by the octanol/water partition coefficient (logP). An alternative approach relies on the correlation between lipophilicity and the retention time (Rt) on a reverse‐phase HPLC column.[31] This approach works well if structurally related compounds are compared as is the case for this SAR study. Rt was thus used to estimate the hydrophilicity of albicidin 1 and its derivatives 2–24 (Table 1).[32]

Chain of E. coli DNA gyrase (P0AES4 whole entry): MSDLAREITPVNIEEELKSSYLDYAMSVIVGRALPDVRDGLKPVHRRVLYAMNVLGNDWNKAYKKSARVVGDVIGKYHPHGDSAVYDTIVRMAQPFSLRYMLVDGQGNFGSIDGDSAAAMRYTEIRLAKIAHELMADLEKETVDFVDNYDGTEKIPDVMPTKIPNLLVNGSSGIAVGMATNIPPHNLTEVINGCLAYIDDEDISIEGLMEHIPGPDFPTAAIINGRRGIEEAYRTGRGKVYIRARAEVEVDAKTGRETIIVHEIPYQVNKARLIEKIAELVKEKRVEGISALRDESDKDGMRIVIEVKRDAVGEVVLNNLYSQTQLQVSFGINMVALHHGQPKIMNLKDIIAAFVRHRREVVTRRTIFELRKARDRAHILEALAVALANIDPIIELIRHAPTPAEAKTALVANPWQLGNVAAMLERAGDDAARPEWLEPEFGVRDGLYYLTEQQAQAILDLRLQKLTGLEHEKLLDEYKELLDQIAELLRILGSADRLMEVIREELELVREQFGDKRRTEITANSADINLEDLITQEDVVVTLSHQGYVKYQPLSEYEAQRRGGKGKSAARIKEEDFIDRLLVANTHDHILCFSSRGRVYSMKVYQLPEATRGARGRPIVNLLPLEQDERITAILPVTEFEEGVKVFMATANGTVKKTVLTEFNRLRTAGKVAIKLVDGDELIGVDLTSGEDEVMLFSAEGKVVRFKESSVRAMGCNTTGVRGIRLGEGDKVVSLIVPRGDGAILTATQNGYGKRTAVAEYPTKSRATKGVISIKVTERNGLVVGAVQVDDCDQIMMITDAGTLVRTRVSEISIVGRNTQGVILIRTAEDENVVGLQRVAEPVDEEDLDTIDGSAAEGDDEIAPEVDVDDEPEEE

Consider `COc1c(NC(=O)c2ccc(NC(=O)c3ccc(NC(=O)[C@H](CC#N)NC(=O)c4ccc(NC(=O)/C(C)=C/c5ccc(O)cc5)cc4)cc3)c(OC)c2O)ccc(C(=O)O)c1O` [compound 1, albicidin], for which the IC50 at bacterial DNA gyrase is 40 nM.

Regarding `COc1ccc(C(=O)Nc2ccc(C(=O)N[C@@H](Cc3c[nH]nn3)C(=O)Nc3ccc(C(=O)Nc4ccc(C(=O)Nc5ccc(C(=O)O)c(O)c5OC)c(O)c4OC)nc3)cc2)nc1` [compound 6], the MIC was 0.125 µg/mL (≈ 0.145 µM) with Bacillus subtilis DSM 10; no more than 0.016 µg/mL in the series on E. coli BW25113; 0.031 µg/mL (≈ 0.036 µM) with E. coli DSM1116; 0.125 µg/mL (≈ 0.145 µM) in series [1]; 2 µg/mL (≈ 2.32 µM) in [2]; no more than 0.016 µg/mL in [3]. Moreover, the MIC in the series on E. coli turned out to be 2 µg/mL. Besides, the “Gyrase inhibition strong+ / weak −” value at E. coli DNA gyrase was “+”. Besides, the “Rt (retention time)” value in [4] is given as 8.29 min.

Turning to `COc1c(NC(=O)c2ccc(NC(=O)c3ccc(NC(=O)[C@H](Cc4c[nH]nn4)NC(=O)c4ccc(NC(=O)c5ccc(F)cn5)cc4)cn3)c(OC)c2O)ccc(C(=O)O)c1O` [compound 7], the MIC in the series with Bacillus subtilis DSM 10 is 0.125 µg/mL (≈ 0.147 µM); in the series with E. coli BW25113, 0.031 µg/mL (≈ 0.0365 µM); in the series on E. coli DSM1116 it was 0.031 µg/mL (≈ 0.0365 µM); in [1], 0.125 µg/mL (≈ 0.147 µM); in series [2] it was 2 µg/mL (≈ 2.36 µM); in series [3], no more than 0.016 µg/mL. For the same compound, the MIC with E. coli was determined as 4 µg/mL. The “Gyrase inhibition strong+ / weak −” value at E. coli DNA gyrase is “+”. Besides, the “Rt (retention time)” value in series [4] was 8.29 min.

For `COc1c(NC(=O)c2ccc(NC(=O)c3ccc(NC(=O)[C@H](Cc4c[nH]nn4)NC(=O)c4ccc(NC(=O)c5ccc([N+](=O)[O-])cn5)cc4)cn3)c(OC)c2O)ccc(C(=O)O)c1O` [compound 8], the MIC was 0.25 µg/mL (≈ 0.285 µM) in the series on Bacillus subtilis DSM 10; 0.125 µg/mL (≈ 0.143 µM) in the series with E. coli BW25113; 0.063 µg/mL (≈ 0.0719 µM) in the series on E. coli DSM1116; 0.063 µg/mL (≈ 0.0719 µM) in series [1]; 2 µg/mL (≈ 2.28 µM) in [2]; 0.063 µg/mL (≈ 0.0719 µM) in series [3]. In addition, in the series with E. coli, the MIC was 8 µg/mL. Also, the “Gyrase inhibition strong+ / weak −” value at E. coli DNA gyrase is on record as “+”. Moreover, the “Rt (retention time)” value in [4] is 8.30 min.

For the compound `COc1c(NC(=O)c2ccc(NC(=O)c3ccc(NC(=O)[C@H](Cc4c[nH]nn4)NC(=O)c4ccc(NC(=O)c5ccc6cc(O)ccc6c5)cc4)cn3)c(OC)c2O)ccc(C(=O)O)c1O` [compound 10], the MIC was 0.063 µg/mL (≈ 0.0703 µM) in the series with Bacillus subtilis DSM 10; no more than 0.016 µg/mL in the series on E. coli BW25113; 0.016 µg/mL (≈ 0.0179 µM) with E. coli DSM1116; 0.031 µg/mL (≈ 0.0346 µM) in [1]; 1 µg/mL (≈ 1.12 µM) in series [2]; no more than 0.016 µg/mL in series [3]. Moreover, in the series on E. coli, the MIC came out at 2 µg/mL. In addition, the CC50 on E. coli DNA gyrase (E. coli gyrase DNA cleavage, read-out: CC50 (concentration at half-maximum cleavage)) is 78 nM. For the same compound, on E. coli DNA gyrase, the “Gyrase inhibition strong+ / weak −” value is on record as “+”. The “Rt (retention time)” value in series [4] is reported as 8.15 min.
